Results published in US4568666A, “Carboxylalkyl peptide derivatives” (G. D. Searle & Co., priority 1984, dated 1986).

Columns and labels:
[1] = molecular target: T1, Human Rheumatoid Synovial Collagenase (Homo sapiens, UniProt P03956); experiment: Collagenase inhibition (procedure of Cawston and Barrett, acetyl 14C collagen); type: biochemical; settings: 37° C., 16 hours, native acetyl 14C collagen, Tris HCl-CaCl2 pH 7.6
T1 construct: from tissue
T1 sequence (P03956 100-469): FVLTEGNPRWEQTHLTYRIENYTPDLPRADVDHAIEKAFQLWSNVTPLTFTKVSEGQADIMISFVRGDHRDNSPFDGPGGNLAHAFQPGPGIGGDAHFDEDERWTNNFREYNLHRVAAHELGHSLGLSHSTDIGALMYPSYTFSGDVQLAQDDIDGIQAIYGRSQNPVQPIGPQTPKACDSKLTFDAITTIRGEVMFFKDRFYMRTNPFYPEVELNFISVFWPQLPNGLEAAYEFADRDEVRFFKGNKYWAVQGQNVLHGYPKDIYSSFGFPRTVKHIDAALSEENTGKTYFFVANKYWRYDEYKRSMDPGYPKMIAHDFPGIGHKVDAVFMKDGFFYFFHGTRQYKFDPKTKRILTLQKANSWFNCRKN
Method: This was determined following the procedure of Cawston and Barrett, Anal. Biochem., 99, 340-345 (1979) whereby the 1 mM of the inhibitor being tested or dilutions thereof are incubated at 37° C. for 16 hours with native collagen and collagenase (buffered with Tris HCl--CaCl2; pH 7.6). The collagen is acetyl ^14 C collagen. The samples are centrifuged to sediment undigested collagen and an aliquot of the radiactive supernatant removed for assay on a scintillation counter as a measure of hydrolysis. The collagenase activity in the presence of 1 mM inhibitor, or a dilution thereof, is compared to activity in a control devoid of inhibitor and the results reported as that inhibitor concentration effecting 50% inhibition of the collagenase.

[2] = tested on: rat model of inflammatory arthritis; experiment: Rat model of inflammatory arthritis induced by Type II collagen (Trentham et al.); type: in vivo; settings: prednisolone 0.625 mg/kg b.i.d.
Method: The therapeutic effectivness is assessed in the rat model of inflammatory arthritis described by Trentham et al. (1977). In this model, the arthritis, induced by an intradermal injection of Type II collagen, generally develops in both hind paws and the progression and severity of the lesion are monitored by physical measurements of the malleolar width and ankle extensibility.
The compound of Example II in the present specification was administered by intraperitoneal injections at 100 mg/kg twice daily for 21 days commencing seven days after the injection of the disease.
Drugs (Example 11 or prednisolone) and vehicle were administered to groups of 10 rats each. Physical measurements on the rat paws were made weekly for four weeks and consisted of (a) the distance between the medial and lateral malleolus (malleolar width) and (b) the ankle extension which was measured by applying a standard force to th rat paw and measuring the angle formed between the flexor surface of the foot and the tibia. Evidence of a therapeutic effect was denoted by a significant reduction in malleolar width and a significant increase in ankle extension. Both measurements were carried out in apparatus designed for the purpose. Area-under-the-curve data from these time course experiments was examinaed by non-parametic statistical analysis. The prednisolone standard was given at a dose of 0.625 mg/kg b.i.d. Prednisolone was chosen as a standard since steroids are known to be effective both clinically in Rheumatoid Arthritis and in animal models of arthritis.

[3] = arthritic rats' paws, Example 11 100 mg/kg i.p. twice daily for 21 days, area-under-the-curve data
[4] = mean of experiments 1-3, Example 11 100 mg/kg i.p. twice daily

| Compound | IC50 [1] | also measured |
| --- | --- | --- |
| CNC(=O)[C@H](Cc1ccc(OCc2ccccc2)cc1)NC(=O)[C@H](CC(C)C)N[C@H](C)C(=O)O [Example 5, N[1-(R)-Carboxyethyl]-L-leucyl-O-benzyl-L-tyrosine N-Methylamide] | 1.7 µM |  |
| CNC(=O)[C@H](Cc1ccc(OC)cc1)NC(=O)[C@H](CC(C)C)N[C@H](CCSC)C(=O)O [Example 7, N[1-(R)-Carboxy-3-methylthiopropyl]-L-leucyl-O-methyl-L-tyrosine N-methylamide] | 5.5 µM |  |
| CNC(=O)[C@H](Cc1ccc(OC)cc1)NC(=O)[C@H](CC(C)C)N[C@H](CCCNC(=O)OCc1ccccc1)C(=O)O [Example 9, N-[4-N-(Benzyloxycarbonyl)amino-1-(R)-carboxybutyl]-L-leucyl-O-methyl-L-tyrosine N-Methylamide] | 9.5 µM |  |
| CNC(=O)[C@H](Cc1ccc(OC)cc1)NC(=O)[C@H](CC(C)C)N[C@H](CCN)C(=O)O [Example 13, N-[3-Amino-1-(R)-carboxypropyl]-L-leucyl-O-methyl-L-tryosine N-Methylamide] | 91 µM |  |
| CNC(=O)[C@H](Cc1ccc(OC)cc1)NC(=O)[C@H](CC(C)C)N[C@H](CCNC(=O)OCc1ccc([N+](=O)[O-])cc1)C(=O)O [Example 14, N-[3-N-(p-Nitrobenzyloxycarbonyl)amino-1-(R)-carboxypropyl]-L-leucyl-O-methyl-L-tyrosine N-Methylamide] | 1.2 µM |  |
| CNC(=O)[C@H](Cc1ccc(OC)cc1)NC(=O)[C@H](CC(C)C)N[C@H](CCNC(=O)c1ccc([N+](=O)[O-])cc1)C(=O)O [Example 16, N-[3-N-(P-Nitrobenzoyl)amino-1-(R)-carboxypropyl]-L-leucyl-O-methyl-L-tyrosine. N-Methylamide] | 4.9 µM |  |
| CC(C)C[C@H](N[C@H](CCNC(=O)OCc1ccccc1)C(=O)O)C(=O)NCCc1ccccc1 [Example 19, N-[3-N-(Benzyloxycarbonyl)amino-1-(R)-carboxypropyl]-L-leucine N-Phenethylamide] | 51 µM |  |
| CNC(=O)[C@H](Cc1ccc(OC)cc1)NC(=O)[C@H](CC(C)C)N[C@H](CCCCNC(=O)OCc1ccccc1)C(=O)O [Example 21, N-[5-N-(Benzyloxycarbonyl)amino-1-(R)-carboxypentyl]-L-leucyl-O-methyl-L-tyrosine N-Methylamide] | 11 µM |  |
| CCCCNC(=O)[C@H](C)NC(=O)[C@H](CCCC)N[C@H](C)C(=O)O [Example 24, N-(1-(R)-Carboxyethyl)-S-norleucyl-S-alanine. N-Butylamide] | 19 µM |  |
| CNC(=O)[C@H](Cc1ccc(O)cc1)NC(=O)[C@H](CC(C)C)N[C@H](CCNC(=O)OCc1ccccc1)C(=O)O [Example 25, N-[3-N-(Benzyloxycarbonyl)amino-1-(R)-carboxypropyl]-L-leucyl-L-tyrosine N -Methylamide] | 1.2 µM |  |
| CNC(=O)[C@H](Cc1ccc(OC(C)(C)C)cc1)NC(=O)[C@H](CC(C)C)N[C@H](CCNC(=O)OCc1ccccc1)C(=O)O [Example 28] | 3.6 µM |  |
| CNC(=O)[C@H](Cc1ccc(OCCC(C)C)cc1)NC(=O)[C@H](CC(C)C)N[C@H](CCNC(=O)OCc1ccccc1)C(=O)O [Example 30, N[3-N-(Benzyloxycarbonyl)amino-1-(R)-carboxypropyl]-L-leucyl-O-3(methyl)butyl-L-tyrosine N-methyl amide] | 1.1 µM |  |
| CCCCNC(=O)COc1ccc(C[C@H](NC(=O)[C@H](CC(C)C)N[C@H](CCNC(=O)OCc2ccccc2)C(=O)O)C(=O)NC)cc1 [Example 34, N-[3-N-(Benzyloxycarbonyl)amino-1-(R)-carboxypropyl]-L-leucyl-O-(2-aminobutyl-2-oxo)ethyl-L-tyrosine N-Methylamide] | 2.6 µM |  |
| COc1ccc(C[C@H](NC(=O)[C@H](CC(C)C)N[C@H](CCNC(=O)OCc2ccccc2)C(=O)O)C(=O)NCCc2ccccc2)cc1 [Example 36, N-[3-N-(Benzyloxycarbonyl)amino-1-(R)-carboxypropyl]-L-leucyl-O-methyl-L-tyrosine N-Phenethylamide] | 1 µM |  |
| C[C@]12C=CC(=O)C=C1CC[C@@H]1[C@@H]2[C@@H](O)C[C@@]2(C)[C@H]1CC[C@]2(O)C(=O)CO [Prednisolone, prednisolone, reference compound] |  | Ankle extension, percentage change from control, experiment number 2 [2, 3]: 96%; Ankle extension, percentage change from control, experiment number 3 [2, 3]: 95%; Malleolar width, percentage change from control, experiment number 1 [2, 3]: 98%; Malleolar width, percentage change from control, experiment number 2 [2, 3]: 96%; Malleolar width, percentage change from control, experiment number 3 [2, 3]: 97%; Ankle extension, percentage change from control, mean [2, 4]: 97%; Malleolar width, percentage change from control, mean [2, 4]: 97% |
| N-[3-(N'-Benzyl)carbamoyl-1-(R)-carboxypropyl]-L-leucyl-O-methyl-L-tyrosineN-Methylamide [Example 18] | 1.3 µM |  |
| N-[3-N-(Benzyloxycarbonyl)amino-1-(R)-carboxypropyl]-L-leucyl-O-(2'-carboxyethyl-L-leucyl N-Methylamide)-L-tyrosine N-Methylamide [Example 35] | 2.4 µM |  |

Further compounds by falling IC50 [1], results first:

| IC50 [1] | Compound | also measured |
| --- | --- | --- |
| 42 µM | CC(C)C[C@H](N[C@H](C)C(=O)O)C(=O)NCCc1ccccc1 [Example 6, N[1-(R)-Carboxyethyl]-L-Leucine N-Phenethylamide] |  |
| 42 µM | CNC(=O)[C@H](Cc1ccc(OC)cc1)NC(=O)[C@H](CC(C)C)N[C@H](CCCCNC(=O)[C@@H]1CCCN1C(C)=O)C(=O)O [Example 22, N-[5-N-[N-Acetyl-L-prolyl]amino-1-(R)-carboxypentyl]-L-leucyl-O-methyl-L-tyrosine N-Methylamide] |  |
| 3.1 µM | CNC(=O)[C@H](Cc1ccc(O)cc1)NC(=O)[C@H](CC(C)C)N[C@H](CCNC(=O)c1ccccc1)C(=O)O [Example 15, N-[3-N-(Benzoyl)amino-1-(R)-carboxy-propyl]-L-leucyl-L-tyrosine N-Methylamide] |  |
| 2.5 µM | CNC(=O)[C@H](Cc1ccc(OCCCCCC(C)C)cc1)NC(=O)[C@H](CC(C)C)N[C@H](CCNC(=O)OCc1ccccc1)C(=O)O [Example 31, N-[3-N-(Benzyloxycarbonyl)amino-1-(R)-carboxypropyl]-L-leucyl-O-6(methyl)heptyl-L-tyrosine N-methyl amide] |  |
| 2.1 µM | CNC(=O)[C@H](Cc1ccc(OC(C)C)cc1)NC(=O)[C@H](CC(C)C)N[C@H](CCNC(=O)OCc1ccccc1)C(=O)O [Example 27, N-[3-N-(Benzyloxycarboxyl)amino-1-(R)-carbonypropyl]-L-leucyl-O-isopropyl-L-tyrosine N-methylamide] |  |
| 0.91 µM | CNC(=O)[C@H](Cc1ccc(OCc2ccccc2)cc1)NC(=O)[C@H](CC(C)C)N[C@H](CCNC(=O)OCc1ccccc1)C(=O)O [Example 32, N-[3-N-(Benzyloxycarbonyl)amino-1-(R)-carboxypropyl]-L-leucyl-O-benzyl-L-tyrosine N-Methylamide] |  |
| 0.74 µM | CCCOc1ccc(C[C@H](NC(=O)[C@H](CC(C)C)N[C@H](CCNC(=O)OCc2ccccc2)C(=O)O)C(=O)NC)cc1 [Example 26, N-(3-N-(Benzyloxycarbonyl)amino-1-(R)-carboxypropyl)-L-leucyl-O-propyl-L-tyrosine N-methyl amide] |  |
| 0.74 µM | CNC(=O)[C@H](Cc1ccc(OC2CCCC2)cc1)NC(=O)[C@H](CC(C)C)N[C@H](CCNC(=O)OCc1ccccc1)C(=O)O [Example 33, N-[3-N-(Benzyloxycarbonyl)amino-1-(R)-carboxypropyl]-L-leucyl-O-cyclopentyl-L-tyrosine N-Methylamide] |  |
| 0.54 µM | CCCCCOc1ccc(C[C@H](NC(=O)[C@H](CC(C)C)N[C@H](CCNC(=O)OCc2ccccc2)C(=O)O)C(=O)NC)cc1 [Example 29, N-[3-N-(Benzyloxycarbonyl)amino-1-(R)-carboxypropyl]-L-leucyl-O-pentyl-L-tyrosine N-Methylamide] |  |
